Measurements from the CheMixHub ionic liquid set.
± gives the uncertainty stated by the source.

Test: xn = mol fraction of the nth substance listed

CCCCCCCCn1cc[n+](C)c1.[Br-] + O
electrical conductivity [S/m]
Settings	298.15 K	308.15 K
100 kPa, frequency 0.001 MHz, x1 = 0.0006843	0.249 ± 0.013	–
100 kPa, frequency 0.001 MHz, x1 = 0.0009721	0.348 ± 0.013	–
100 kPa, frequency 0.001 MHz, x1 = 0.001278	0.462 ± 0.014	–
100 kPa, frequency 0.001 MHz, x1 = 0.001601	0.576 ± 0.014	–
100 kPa, frequency 0.001 MHz, x1 = 0.001889	0.683 ± 0.014	–
100 kPa, frequency 0.001 MHz, x1 = 0.002176	0.778 ± 0.015	–
100 kPa, frequency 0.001 MHz, x1 = 0.002445	0.88 ± 0.015	–
100 kPa, frequency 0.001 MHz, x1 = 0.002714	0.965 ± 0.014	–
100 kPa, frequency 0.001 MHz, x1 = 0.003072	1.06 ± 0.013	–
100 kPa, frequency 0.001 MHz, x1 = 0.003341	1.1 ± 0.012	–
100 kPa, frequency 0.001 MHz, x1 = 0.003681	1.15 ± 0.013	–
100 kPa, frequency 0.001 MHz, x1 = 0.004092	1.22 ± 0.013	–
100 kPa, frequency 0.001 MHz, x1 = 0.004592	1.28 ± 0.014	–
101 kPa, frequency 1 MHz, x1 = 0.0001962	0.1011 ± 0.001	0.122 ± 0.0013

Settings	electrical conductivity [S/m]	viscosity [mPa·s]
298.15 K, 100 kPa, x1 = 6.847e-05	–	0.892 ± 0.019
298.15 K, 100 kPa, x1 = 0.0003279	–	0.899 ± 0.019
298.15 K, 101 kPa, x1 = 1.982e-05	–	0.891 ± 0.019
298.15 K, 101 kPa, x1 = 3.243e-05	–	0.892 ± 0.019
298.15 K, 101 kPa, x1 = 0.0001962	–	0.912 ± 0.011
298.15 K, 101 kPa, x1 = 0.001831	–	0.965 ± 0.013
298.15 K, 101 kPa, x1 = 0.003519	1.17 ± 0.02	–
298.15 K, 101 kPa, x1 = 0.003598	–	1.025 ± 0.014
298.15 K, 101 kPa, x1 = 0.00377	1.23 ± 0.03	–
298.15 K, 101 kPa, x1 = 0.003967	1.26 ± 0.03	–
298.15 K, 101 kPa, x1 = 0.004163	1.3 ± 0.03	–
298.15 K, 101 kPa, x1 = 0.004378	1.34 ± 0.03	–
298.15 K, 101 kPa, x1 = 0.004538	1.36 ± 0.03	–
298.15 K, 101 kPa, x1 = 0.004717	1.39 ± 0.03	–
298.15 K, 101 kPa, x1 = 0.004895	1.41 ± 0.03	–
298.15 K, 101 kPa, x1 = 0.005109	1.45 ± 0.03	–
298.15 K, 101 kPa, x1 = 0.005288	1.48 ± 0.03	–
298.15 K, 101 kPa, x1 = 0.005443	–	1.103 ± 0.014
298.15 K, 101 kPa, x1 = 0.005484	1.51 ± 0.03	–
298.15 K, 101 kPa, x1 = 0.005698	1.54 ± 0.03	–
298.15 K, 101 kPa, x1 = 0.005894	1.56 ± 0.03	–
298.15 K, 101 kPa, x1 = 0.007132	–	1.172 ± 0.014
303.15 K, 100 kPa, x1 = 0.0002	–	0.803 ± 0.017
308.15 K, 100 kPa, x1 = 0.0003279	–	0.726 ± 0.015
308.15 K, 101 kPa, x1 = 0.0001962	–	0.736 ± 0.009
313.15 K, 100 kPa, x1 = 0.0002	–	0.657 ± 0.014

CCCC[n+]1ccn(C)c1.COP(=O)([O-])OC + O
101 kPa
Settings	viscosity [mPa·s]
298.15 K, x2 = 0.398	251 ± 15
303.15 K, x2 = 0.201	291 ± 18
303.15 K, x2 = 0.601	81.6 ± 1.7
313.15 K, x2 = 0.799	15.81 ± 0.19
318.15 K, x2 = 0.398	78.8 ± 1.5
328.15 K, x2 = 0.398	49.68 ± 0.62

CCCC[n+]1ccn(C)c1.O=S(=O)([O-])C(F)(F)F + O
Settings	viscosity [mPa·s]
343.15 K, 101 kPa, x2 = 0.1939	10.55 ± 0.78

CCOS(=O)(=O)[O-].CC[N+]1(C)CCOCC1 + O
101 kPa
Settings	viscosity [mPa·s]
313.15 K, x2 = 0.193	750 ± 140
333.15 K, x2 = 0.3681	81 ± 13
333.15 K, x2 = 0.7786	6.7 ± 1.1
343.15 K, x2 = 0.6835	9.5 ± 1.5

CCCC[n+]1ccn(C)c1.[Cl-] + O + CCCCCCCCCCCCCCCC[N+](C)(C)C.[Br-]
electrical conductivity [S/m], 100 kPa
Settings	298 K	303 K	308 K	313 K	318 K
x1 = 0.0001802, x3 = 8.8e-07	0.095 ± 0.06	0.094 ± 0.06	0.096 ± 0.06	0.101 ± 0.06	0.101 ± 0.06
x1 = 0.0001802, x3 = 1.79e-06	0.096 ± 0.06	0.095 ± 0.06	0.097 ± 0.06	0.101 ± 0.06	0.101 ± 0.06
x1 = 0.0001802, x3 = 2.67e-06	0.097 ± 0.06	0.095 ± 0.06	0.097 ± 0.06	0.102 ± 0.06	0.102 ± 0.06
x1 = 0.0001802, x3 = 3.56e-06	0.097 ± 0.06	0.096 ± 0.06	0.098 ± 0.06	0.102 ± 0.06	0.102 ± 0.06
x1 = 0.0001802, x3 = 4.42e-06	0.098 ± 0.06	0.096 ± 0.06	0.098 ± 0.06	0.103 ± 0.06	0.102 ± 0.06
x1 = 0.0001802, x3 = 5.31e-06	0.098 ± 0.06	0.096 ± 0.06	0.098 ± 0.06	0.103 ± 0.06	0.103 ± 0.06
x1 = 0.0001802, x3 = 6.17e-06	0.098 ± 0.06	0.097 ± 0.06	0.099 ± 0.06	0.104 ± 0.06	0.103 ± 0.06
x1 = 0.0001802, x3 = 7.02e-06	0.098 ± 0.06	0.097 ± 0.06	0.099 ± 0.06	0.104 ± 0.06	0.103 ± 0.06
x1 = 0.0001802, x3 = 7.87e-06	0.098 ± 0.06	0.097 ± 0.06	0.099 ± 0.06	0.104 ± 0.06	0.103 ± 0.06
x1 = 0.0001802, x3 = 8.72e-06	0.098 ± 0.06	0.097 ± 0.06	0.1 ± 0.06	0.104 ± 0.06	0.104 ± 0.06
x1 = 0.0001802, x3 = 9.57e-06	0.099 ± 0.06	–	–	–	–
x1 = 0.0001802, x3 = 1.04e-05	0.099 ± 0.06	0.098 ± 0.06	0.1 ± 0.06	0.105 ± 0.06	0.104 ± 0.06
x1 = 0.0001802, x3 = 1.124e-05	0.099 ± 0.06	–	–	–	–
x1 = 0.0001802, x3 = 1.206e-05	0.099 ± 0.06	0.098 ± 0.06	0.1 ± 0.06	0.105 ± 0.06	0.104 ± 0.06
x1 = 0.0001802, x3 = 1.289e-05	0.099 ± 0.06	–	–	–	–
x1 = 0.0001802, x3 = 1.37e-05	0.099 ± 0.06	0.098 ± 0.06	0.1 ± 0.06	0.105 ± 0.06	0.104 ± 0.06
x1 = 0.0001802, x3 = 1.451e-05	0.099 ± 0.06	–	–	–	–
x1 = 0.0001802, x3 = 1.532e-05	0.1 ± 0.06	0.099 ± 0.06	0.101 ± 0.06	0.105 ± 0.06	0.105 ± 0.06
x1 = 0.0001802, x3 = 1.612e-05	0.1 ± 0.06	–	–	–	–
x1 = 0.0001802, x3 = 1.691e-05	0.1 ± 0.06	0.099 ± 0.06	0.101 ± 0.06	0.106 ± 0.06	0.105 ± 0.06
x1 = 0.0001802, x3 = 1.77e-05	0.1 ± 0.06	–	–	–	–
x1 = 0.0001802, x3 = 1.848e-05	0.1 ± 0.06	0.099 ± 0.06	0.101 ± 0.06	0.106 ± 0.06	0.105 ± 0.06
x1 = 0.0001802, x3 = 1.928e-05	0.1 ± 0.06	–	–	–	–
x1 = 0.0001802, x3 = 2.005e-05	0.1 ± 0.06	0.099 ± 0.06	0.101 ± 0.06	0.106 ± 0.06	0.105 ± 0.06
x1 = 0.0001802, x3 = 2.081e-05	0.1 ± 0.06	–	–	–	–
x1 = 0.0001802, x3 = 2.159e-05	0.1 ± 0.06	0.1 ± 0.06	0.102 ± 0.06	0.106 ± 0.06	0.105 ± 0.06
x1 = 0.0001802, x3 = 2.234e-05	0.101 ± 0.06	–	–	–	–
x1 = 0.0001802, x3 = 2.31e-05	0.101 ± 0.06	0.1 ± 0.06	0.102 ± 0.06	0.107 ± 0.06	0.106 ± 0.06
x1 = 0.0001802, x3 = 2.386e-05	0.101 ± 0.06	–	–	–	–
x1 = 0.0001802, x3 = 2.46e-05	0.101 ± 0.06	0.1 ± 0.06	0.102 ± 0.06	0.107 ± 0.06	0.106 ± 0.06
x1 = 0.0001802, x3 = 2.534e-05	0.101 ± 0.06	–	–	–	–
x1 = 0.0001802, x3 = 2.608e-05	–	0.1 ± 0.06	0.102 ± 0.06	0.107 ± 0.06	0.106 ± 0.06
x1 = 0.0001802, x3 = 2.754e-05	–	0.101 ± 0.06	0.103 ± 0.06	0.107 ± 0.06	0.107 ± 0.06
x1 = 0.0001802, x3 = 2.9e-05	–	0.101 ± 0.06	0.103 ± 0.06	0.108 ± 0.06	0.107 ± 0.06
x1 = 0.0001802, x3 = 3.043e-05	–	0.101 ± 0.06	0.103 ± 0.06	0.108 ± 0.06	0.107 ± 0.06
x1 = 0.0001802, x3 = 3.184e-05	–	0.101 ± 0.06	0.103 ± 0.06	0.108 ± 0.06	0.107 ± 0.06
x1 = 0.0001802, x3 = 3.324e-05	–	0.101 ± 0.06	0.103 ± 0.06	0.108 ± 0.06	0.107 ± 0.06
x1 = 0.0001802, x3 = 3.462e-05	–	0.101 ± 0.06	0.104 ± 0.06	0.109 ± 0.06	0.108 ± 0.06
x1 = 0.0001802, x3 = 3.599e-05	–	0.102 ± 0.06	0.104 ± 0.06	0.109 ± 0.06	0.108 ± 0.06
x1 = 0.0001802, x3 = 3.732e-05	–	0.102 ± 0.06	0.104 ± 0.06	0.109 ± 0.06	0.108 ± 0.06
x1 = 0.0001802, x3 = 3.866e-05	–	0.102 ± 0.06	0.104 ± 0.06	0.109 ± 0.06	0.108 ± 0.06
x1 = 0.0001802, x3 = 3.998e-05	–	0.102 ± 0.06	0.105 ± 0.06	0.11 ± 0.06	0.109 ± 0.06

CC(C)O + O + CCCCCCCCCCCCOS(=O)(=O)[O-].[Na+]
298 K, 100 kPa, frequency 0.001 MHz
Settings	electrical conductivity [S/m]
x1 = 0.01509, x3 = 0	0.00013
x1 = 0.02546, x2 = 0.9745	0.00014
